# Measured values published in patent US20230133958A1, “COMPOUNDS USEFUL IN MODULATING EGFR AND PI3K” (Mekanistic Therapeutics LLC, priority 2021, published 2023).
# Legend:
# Format in all cases: cell-based
# SK-OV3 = test: NCI COMPARE panel (SRB growth inhibition), SK-OV3; settings: Homo sapiens, SK-OV-3; Ovarian Cancer, SK-OV3, 48 h
# Procedure: (§1) The human tumor cell lines of the cancer screening panel are grown in RPMI 1640 medium containing 5% fetal bovine serum and 2 mM L-glutamine. For a typical screening experiment, cells are inoculated into 96 well microtiter plates in 100 µL at plating densities ranging from 5,000 to 40,000 cells/well depending on the doubling time of individual cell lines. After cell inoculation, the microtiter plates are incubated at 37° C., 5% CO2, 95% air and 100% relative humidity for 24 h prior to addition of experimental drugs.
# (§2) After 24 h, two plates of each cell line are fixed in situ with TCA, to represent a measurement of the cell population for each cell line at the time of drug addition (Tz). Experimental drugs are solubilized in dimethyl sulfoxide at 400-fold the desired final maximum test concentration and stored frozen prior to use. […]
# (§3) Following drug addition, the plates are incubated for an additional 48 h at 37° C., 5 % CO2, 95% air, and 100% relative humidity. […] Bound stain is subsequently solubilized with 10 mM trizma base, and the absorbance is read on an automated plate reader at a wavelength of 515 nm. […] Using the seven absorbance measurements [time zero, (Tz), control growth, (C), and test growth in the presence of drug at the five concentration levels (Ti)], the percentage growth is calculated at each of the drug concentrations levels. Percentage growth inhibition is calculated as: […]
# SNB-19 = test: NCI COMPARE panel (SRB growth inhibition), SNB-19; settings: Homo sapiens; CNS Cancer, SNB-19, 48 h
# Procedure: as §1, §2, §3
# OVCAR-8 = test: NCI COMPARE panel (SRB growth inhibition), OVCAR-8; settings: Homo sapiens; Ovarian Cancer, OVCAR-8, 48 h
# Procedure: as §1, §2, §3
# SR = test: NCI COMPARE panel (SRB growth inhibition), SR; settings: Homo sapiens, Leukemia, 48 h
# Procedure: as §1, §2, §3
# HOP-62 = test: NCI COMPARE panel (SRB growth inhibition), HOP-62; settings: Homo sapiens; Non-Small Cell Lung Cancer, HOP-62, 48 h
# Procedure: as §1, §2, §3
# BT-549 = test: NCI COMPARE panel (SRB growth inhibition), BT-549; settings: Homo sapiens; Breast Cancer, BT-549, 48 h
# Procedure: as §1, §2, §3
# SK-MEL-2 = test: NCI COMPARE panel (SRB growth inhibition), SK-MEL-2; settings: Homo sapiens; Melanoma, SK-MEL-2, 48 h
# Procedure: as §1, §2, §3
# EKVX = test: NCI COMPARE panel (SRB growth inhibition), EKVX; settings: Homo sapiens, Non-Small Cell Lung Cancer, 48 h
# Procedure: as §1, §2, §3
# MOLT-4 = test: NCI COMPARE panel (SRB growth inhibition), MOLT-4; settings: Homo sapiens; Leukemia, MOLT-4, 48 h
# Procedure: as §1, §2, §3
# MDA-MB-468 = test: NCI COMPARE panel (SRB growth inhibition), MDA-MB-468; settings: Homo sapiens; Breast Cancer, MDA-MB-468, 48 h
# Procedure: as §1, §2, §3
# MCF7 = test: NCI COMPARE panel (SRB growth inhibition), MCF7; settings: Homo sapiens; Breast Cancer, MCF7, 48 h
# Procedure: as §1, §2, §3
# NCI-H322M = test: NCI COMPARE panel (SRB growth inhibition), NCI-H322M; settings: Homo sapiens, Non-Small Cell Lung Cancer, 48 h
# Procedure: as §1, §2, §3
# NCI-H460 = test: NCI COMPARE panel (SRB growth inhibition), NCI-H460; settings: Homo sapiens; Non-Small Cell Lung Cancer, NCI-H460, 48 h
# Procedure: as §1, §2, §3
# HCT-15 = test: NCI COMPARE panel (SRB growth inhibition), HCT-15; settings: Homo sapiens; Colon Cancer, HCT-15, 48 h
# Procedure: as §1, §2, §3
# RXF 393 = test: NCI COMPARE panel (SRB growth inhibition), RXF 393; settings: Homo sapiens; Renal Cancer, RXF 393, 48 h
# Procedure: as §1, §2, §3
structure (smiles),measurement,setting,value
"CS(=O)(=O)Nc1cc(-c2ccc3ncnc(Nc4cccc(Cl)c4F)c3c2)cnc1Cl [Compound 6, N-[2-chloro-5-[4-(3-chloro-2-fluoro-anilino)quinazolin-6-yl]-3-pyridyl] methanesulfonamide]",GI50,SK-OV3,0.075 to 0.125 µM
same,GI50,SNB-19,0.125 to 0.25 µM
same,GI50,OVCAR-8,> 0.25 µM
same,GI50,SR,> 0.25 µM
same,GI50,HOP-62,0.075 to 0.125 µM
same,GI50,BT-549,0.075 to 0.125 µM
same,GI50,SK-MEL-2,0.125 to 0.25 µM
same,GI50,EKVX,0.075 to 0.125 µM
same,GI50,MOLT-4,0.125 to 0.25 µM
same,GI50,MDA-MB-468,0.125 to 0.25 µM
same,GI50,MCF7,≤ 0.075 µM
same,GI50,NCI-H322M,0.125 to 0.25 µM
same,GI50,NCI-H460,> 0.25 µM
same,GI50,HCT-15,0.125 to 0.25 µM
same,GI50,RXF 393,0.075 to 0.125 µM
"CS(=O)(=O)Nc1cc(-c2ccc3ncc(C#N)c(Nc4cccc(Cl)c4F)c3c2)cnc1Cl [Compound 10, N-[2-chloro-5-[4-(3-chloro-2-fluoro-anilino)-3-cyano-6-quinolyl]-3-pyridyl]methanesulfonamide]",GI50,SK-OV3,> 0.25 µM
same,GI50,SNB-19,0.125 to 0.25 µM
same,GI50,OVCAR-8,> 0.25 µM
same,GI50,SR,≤ 0.075 µM
same,GI50,HOP-62,0.125 to 0.25 µM
same,GI50,BT-549,≤ 0.075 µM
same,GI50,SK-MEL-2,≤ 0.075 µM
same,GI50,EKVX,> 0.25 µM
same,GI50,MOLT-4,0.075 to 0.125 µM
same,GI50,MDA-MB-468,≤ 0.075 µM
same,GI50,MCF7,≤ 0.075 µM
same,GI50,NCI-H322M,> 0.25 µM
same,GI50,NCI-H460,> 0.25 µM
same,GI50,HCT-15,0.075 to 0.125 µM
same,GI50,RXF 393,≤ 0.075 µM
